{
  "source": "paper PMC12090182",
  "about": "“Repurposing of the RIPK1-Selective Benzo[1,4]oxazepin-4-one Scaffold for the Development of a Type III LIMK1/2 Inhibitor” (ACS Chemical Biology, 2025)",
  "assay_in_all_cases": "scanMAX KINOMEscan (Eurofins)",
  "format_in_all_cases": "binding",
  "key": {"MELK": {"biological_target": "MELK (Homo sapiens, UniProt Q14680)", "settings": "compound concentration 100 nM; Entrez MELK; read-out: Percent Control", "text": "(§1) Supplement cb5c00097_si_002.xlsx, sheet \"Table S6 (Eurofins Selectivity)\" | column: Percent Control"}, "NEK4": {"biological_target": "NEK4 (Homo sapiens, UniProt P51957)", "settings": "compound concentration 100 nM; Entrez NEK4; read-out: Percent Control", "text": "as §1"}, "EPHA7": {"biological_target": "EPHA7 (Homo sapiens, UniProt Q15375)", "sequence (Q15375 28-998)": "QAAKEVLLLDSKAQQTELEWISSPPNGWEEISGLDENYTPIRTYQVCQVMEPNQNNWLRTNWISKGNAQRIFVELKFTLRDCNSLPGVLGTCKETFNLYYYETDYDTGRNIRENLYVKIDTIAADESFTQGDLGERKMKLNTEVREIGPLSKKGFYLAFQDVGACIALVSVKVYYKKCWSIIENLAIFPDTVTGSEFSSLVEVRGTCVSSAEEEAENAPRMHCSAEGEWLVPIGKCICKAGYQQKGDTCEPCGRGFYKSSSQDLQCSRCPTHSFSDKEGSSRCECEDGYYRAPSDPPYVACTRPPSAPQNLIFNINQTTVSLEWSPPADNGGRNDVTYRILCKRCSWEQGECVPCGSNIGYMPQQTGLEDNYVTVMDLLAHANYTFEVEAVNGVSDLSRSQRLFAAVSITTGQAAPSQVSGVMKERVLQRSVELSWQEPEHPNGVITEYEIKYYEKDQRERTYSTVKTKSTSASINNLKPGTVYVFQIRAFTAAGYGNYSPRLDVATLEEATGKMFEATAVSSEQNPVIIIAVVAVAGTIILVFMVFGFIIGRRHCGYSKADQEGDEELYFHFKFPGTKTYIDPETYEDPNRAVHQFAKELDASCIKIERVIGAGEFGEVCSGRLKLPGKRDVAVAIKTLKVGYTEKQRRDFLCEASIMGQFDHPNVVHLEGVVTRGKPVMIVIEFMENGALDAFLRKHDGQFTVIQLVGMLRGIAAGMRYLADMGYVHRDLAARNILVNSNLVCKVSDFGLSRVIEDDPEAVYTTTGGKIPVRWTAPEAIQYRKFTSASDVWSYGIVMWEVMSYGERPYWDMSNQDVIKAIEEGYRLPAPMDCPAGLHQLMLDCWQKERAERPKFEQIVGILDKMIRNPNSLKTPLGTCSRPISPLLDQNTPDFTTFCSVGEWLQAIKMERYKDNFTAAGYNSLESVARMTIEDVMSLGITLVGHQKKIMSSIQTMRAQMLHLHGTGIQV", "settings": "read-out: Percent Control", "text": "as §1"}, "IKK-beta": {"biological_target": "IKK-beta (Homo sapiens, UniProt O14920)", "sequence (O14920 whole entry)": "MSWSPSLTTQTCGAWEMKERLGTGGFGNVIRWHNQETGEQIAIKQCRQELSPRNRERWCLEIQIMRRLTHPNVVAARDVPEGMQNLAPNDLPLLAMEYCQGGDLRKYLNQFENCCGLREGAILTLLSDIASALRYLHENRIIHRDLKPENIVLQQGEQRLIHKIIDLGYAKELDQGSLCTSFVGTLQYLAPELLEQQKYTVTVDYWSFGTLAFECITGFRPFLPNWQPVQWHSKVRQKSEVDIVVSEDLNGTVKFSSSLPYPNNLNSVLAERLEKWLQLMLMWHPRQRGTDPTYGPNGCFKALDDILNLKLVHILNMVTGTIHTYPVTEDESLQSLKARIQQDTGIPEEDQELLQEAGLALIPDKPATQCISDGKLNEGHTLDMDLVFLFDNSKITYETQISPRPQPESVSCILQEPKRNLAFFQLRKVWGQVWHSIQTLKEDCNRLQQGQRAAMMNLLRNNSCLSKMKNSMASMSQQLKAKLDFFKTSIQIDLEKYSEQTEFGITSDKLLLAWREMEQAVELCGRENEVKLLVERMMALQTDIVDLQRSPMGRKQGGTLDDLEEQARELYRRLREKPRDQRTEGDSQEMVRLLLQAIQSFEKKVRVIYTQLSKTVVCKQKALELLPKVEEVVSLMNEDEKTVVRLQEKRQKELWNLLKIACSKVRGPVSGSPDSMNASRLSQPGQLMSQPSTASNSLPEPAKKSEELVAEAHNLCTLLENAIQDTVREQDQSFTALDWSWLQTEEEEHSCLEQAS", "settings": "read-out: Percent Control", "text": "as §1"}, "STK36": {"biological_target": "STK36 (Homo sapiens, UniProt Q9NRP7)", "settings": "1000 nM, read-out: Percent Control", "text": "as §1"}, "HIPK4": {"biological_target": "HIPK4 (Homo sapiens, UniProt Q8NE63)", "settings": "1000 nM, read-out: Percent Control", "text": "as §1"}, "PIK3CA": {"biological_target": "PIK3CA (Homo sapiens, UniProt P42336)", "settings": "1000 nM, read-out: Percent Control", "text": "as §1"}, "WEE1": {"biological_target": "WEE1 (Homo sapiens, UniProt P30291)", "settings": "1000 nM, read-out: Percent Control", "text": "as §1"}, "SRPK2": {"biological_target": "SRPK2 (Homo sapiens, UniProt P78362)", "settings": "compound concentration 100 nM; Entrez SRPK2; read-out: Percent Control", "text": "as §1"}, "MARK3": {"biological_target": "MARK3 (Homo sapiens, UniProt P27448)", "settings": "1000 nM, read-out: Percent Control", "text": "as §1"}, "SGK2": {"biological_target": "SGK2 (Homo sapiens, UniProt Q9HBY8)", "settings": "1000 nM, read-out: Percent Control", "text": "as §1"}, "ULK1": {"biological_target": "ULK1 (Homo sapiens, UniProt O75385)", "settings": "compound concentration 100 nM; Entrez ULK1; read-out: Percent Control", "text": "as §1"}, "CSNK1A1": {"biological_target": "CSNK1A1 (Homo sapiens, UniProt P48729)", "settings": "1000 nM, read-out: Percent Control", "text": "as §1"}, "ERBB2": {"biological_target": "ERBB2 (Homo sapiens, UniProt P04626)", "sequence (P04626 23-1255)": "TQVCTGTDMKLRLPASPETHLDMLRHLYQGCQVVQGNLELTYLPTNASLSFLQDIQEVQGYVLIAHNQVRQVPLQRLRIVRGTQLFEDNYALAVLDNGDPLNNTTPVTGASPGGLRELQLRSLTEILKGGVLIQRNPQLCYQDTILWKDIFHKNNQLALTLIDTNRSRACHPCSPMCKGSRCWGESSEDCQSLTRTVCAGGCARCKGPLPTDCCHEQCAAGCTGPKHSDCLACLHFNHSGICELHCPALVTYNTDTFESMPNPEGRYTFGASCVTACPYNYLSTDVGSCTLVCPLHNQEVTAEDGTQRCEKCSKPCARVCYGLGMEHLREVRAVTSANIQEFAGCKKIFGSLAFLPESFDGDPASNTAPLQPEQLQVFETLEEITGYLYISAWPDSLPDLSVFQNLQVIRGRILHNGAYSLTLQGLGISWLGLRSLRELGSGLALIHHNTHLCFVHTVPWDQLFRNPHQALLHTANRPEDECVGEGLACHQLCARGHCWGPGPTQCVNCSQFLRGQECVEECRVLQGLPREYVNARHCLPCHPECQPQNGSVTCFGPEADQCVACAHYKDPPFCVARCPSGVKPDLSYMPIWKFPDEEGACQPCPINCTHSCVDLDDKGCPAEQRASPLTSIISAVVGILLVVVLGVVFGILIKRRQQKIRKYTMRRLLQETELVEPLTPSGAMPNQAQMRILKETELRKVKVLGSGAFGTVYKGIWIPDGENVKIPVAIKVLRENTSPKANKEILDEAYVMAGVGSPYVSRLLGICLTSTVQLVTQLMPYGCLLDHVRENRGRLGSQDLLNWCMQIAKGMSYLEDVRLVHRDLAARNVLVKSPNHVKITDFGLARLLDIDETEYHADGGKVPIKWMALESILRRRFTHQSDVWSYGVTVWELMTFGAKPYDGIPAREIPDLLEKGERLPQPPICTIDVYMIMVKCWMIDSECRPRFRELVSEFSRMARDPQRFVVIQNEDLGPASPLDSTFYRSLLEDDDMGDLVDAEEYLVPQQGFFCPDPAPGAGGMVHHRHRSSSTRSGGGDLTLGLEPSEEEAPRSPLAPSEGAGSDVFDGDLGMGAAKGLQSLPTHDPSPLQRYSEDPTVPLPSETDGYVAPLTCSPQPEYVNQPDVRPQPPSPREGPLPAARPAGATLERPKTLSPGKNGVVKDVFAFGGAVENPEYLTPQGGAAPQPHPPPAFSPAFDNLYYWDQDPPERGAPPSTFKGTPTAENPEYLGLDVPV", "settings": "read-out: Percent Control", "text": "as §1"}, "INSRR": {"biological_target": "INSRR (Homo sapiens, UniProt P14616)", "settings": "1000 nM, read-out: Percent Control", "text": "as §1"}, "PRKX": {"biological_target": "PRKX (Homo sapiens, UniProt P51817)", "settings": "1000 nM, read-out: Percent Control", "text": "as §1"}, "[1]": {"biological_target": "RSK2(Kin.Dom.2-C-terminal) (Homo sapiens, UniProt P51812)", "settings": "1000 nM, read-out: Percent Control", "text": "as §1"}, "CDC2L5": {"biological_target": "CDC2L5 (Homo sapiens, UniProt Q14004)", "sequence (Q14004 whole entry)": "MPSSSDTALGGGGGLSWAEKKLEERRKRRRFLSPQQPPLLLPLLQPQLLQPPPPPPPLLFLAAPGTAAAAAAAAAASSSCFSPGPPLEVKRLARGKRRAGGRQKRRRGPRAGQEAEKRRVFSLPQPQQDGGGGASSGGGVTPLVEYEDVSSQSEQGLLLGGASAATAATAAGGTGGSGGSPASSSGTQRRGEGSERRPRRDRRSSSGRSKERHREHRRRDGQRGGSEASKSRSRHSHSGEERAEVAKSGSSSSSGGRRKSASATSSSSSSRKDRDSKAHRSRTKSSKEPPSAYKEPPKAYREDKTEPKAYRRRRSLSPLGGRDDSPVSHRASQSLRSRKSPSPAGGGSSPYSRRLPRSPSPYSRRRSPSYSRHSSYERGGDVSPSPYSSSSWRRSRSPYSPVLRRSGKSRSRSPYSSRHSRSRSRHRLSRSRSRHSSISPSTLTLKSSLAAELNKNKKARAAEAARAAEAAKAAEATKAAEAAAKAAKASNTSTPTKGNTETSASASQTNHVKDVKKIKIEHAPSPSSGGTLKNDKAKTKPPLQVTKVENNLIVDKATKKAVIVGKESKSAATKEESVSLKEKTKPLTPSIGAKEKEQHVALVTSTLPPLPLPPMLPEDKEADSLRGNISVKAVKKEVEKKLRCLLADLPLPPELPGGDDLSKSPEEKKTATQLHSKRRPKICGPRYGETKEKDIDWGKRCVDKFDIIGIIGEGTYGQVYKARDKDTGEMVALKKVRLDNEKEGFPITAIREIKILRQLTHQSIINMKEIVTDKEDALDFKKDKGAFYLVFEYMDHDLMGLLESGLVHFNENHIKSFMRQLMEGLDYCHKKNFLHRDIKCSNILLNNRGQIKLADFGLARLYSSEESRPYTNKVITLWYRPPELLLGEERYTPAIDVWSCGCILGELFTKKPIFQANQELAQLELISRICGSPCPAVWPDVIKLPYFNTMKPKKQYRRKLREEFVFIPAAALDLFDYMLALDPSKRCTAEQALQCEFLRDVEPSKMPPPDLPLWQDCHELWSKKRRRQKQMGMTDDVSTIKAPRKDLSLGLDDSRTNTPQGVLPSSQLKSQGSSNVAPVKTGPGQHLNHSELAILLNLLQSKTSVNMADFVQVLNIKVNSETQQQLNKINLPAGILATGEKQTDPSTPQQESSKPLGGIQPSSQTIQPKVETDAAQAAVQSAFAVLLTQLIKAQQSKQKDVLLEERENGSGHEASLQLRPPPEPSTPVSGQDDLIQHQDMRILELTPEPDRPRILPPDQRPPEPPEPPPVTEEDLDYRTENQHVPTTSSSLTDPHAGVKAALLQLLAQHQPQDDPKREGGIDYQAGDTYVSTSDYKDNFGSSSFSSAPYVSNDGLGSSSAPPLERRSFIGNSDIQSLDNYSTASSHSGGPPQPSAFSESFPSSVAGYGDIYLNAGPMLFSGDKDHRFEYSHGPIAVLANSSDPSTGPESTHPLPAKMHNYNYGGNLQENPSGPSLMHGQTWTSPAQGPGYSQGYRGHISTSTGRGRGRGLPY", "settings": "read-out: Percent Control", "text": "as §1"}, "SIK2": {"biological_target": "SIK2 (Homo sapiens, UniProt Q9H0K1)", "settings": "compound concentration 100 nM; Entrez SIK2; read-out: Percent Control", "text": "as §1"}, "PRKG1": {"biological_target": "PRKG1 (Homo sapiens, UniProt Q13976)", "settings": "1000 nM, read-out: Percent Control", "text": "as §1"}, "SRMS": {"biological_target": "SRMS (Homo sapiens, UniProt Q9H3Y6)", "settings": "compound concentration 100 nM; Entrez SRMS; read-out: Percent Control", "text": "as §1"}, "KIT-autoinhibited": {"biological_target": "KIT-autoinhibited (Homo sapiens, UniProt P10721)", "settings": "1000 nM, read-out: Percent Control", "text": "as §1"}, "NEK10": {"biological_target": "NEK10 (Homo sapiens, UniProt Q6ZWH5)", "settings": "1000 nM, read-out: Percent Control", "text": "as §1"}, "GRK3": {"biological_target": "GRK3 (Homo sapiens, UniProt P35626)", "settings": "1000 nM, read-out: Percent Control", "text": "as §1"}, "HIPK1": {"biological_target": "HIPK1 (Homo sapiens, UniProt Q86Z02)", "settings": "1000 nM, read-out: Percent Control", "text": "as §1"}, "NLK": {"biological_target": "NLK (Homo sapiens, UniProt Q9UBE8)", "settings": "1000 nM, read-out: Percent Control", "text": "as §1"}, "PIP5K1C": {"biological_target": "PIP5K1C (Homo sapiens, UniProt O60331)", "settings": "compound concentration 100 nM; Entrez PIP5K1C; read-out: Percent Control", "text": "as §1"}, "EIF2AK1": {"biological_target": "EIF2AK1 (Homo sapiens, UniProt Q9BQI3)", "settings": "1000 nM, read-out: Percent Control", "text": "as §1"}, "HIPK3": {"biological_target": "HIPK3 (Homo sapiens, UniProt Q9H422)", "settings": "1000 nM, read-out: Percent Control", "text": "as §1"}, "EPHB6": {"biological_target": "EPHB6 (Homo sapiens, UniProt O15197)", "settings": "1000 nM, read-out: Percent Control", "text": "as §1"}, "PLK3": {"biological_target": "PLK3 (Homo sapiens, UniProt Q9H4B4)", "sequence (Q9H4B4 whole entry)": "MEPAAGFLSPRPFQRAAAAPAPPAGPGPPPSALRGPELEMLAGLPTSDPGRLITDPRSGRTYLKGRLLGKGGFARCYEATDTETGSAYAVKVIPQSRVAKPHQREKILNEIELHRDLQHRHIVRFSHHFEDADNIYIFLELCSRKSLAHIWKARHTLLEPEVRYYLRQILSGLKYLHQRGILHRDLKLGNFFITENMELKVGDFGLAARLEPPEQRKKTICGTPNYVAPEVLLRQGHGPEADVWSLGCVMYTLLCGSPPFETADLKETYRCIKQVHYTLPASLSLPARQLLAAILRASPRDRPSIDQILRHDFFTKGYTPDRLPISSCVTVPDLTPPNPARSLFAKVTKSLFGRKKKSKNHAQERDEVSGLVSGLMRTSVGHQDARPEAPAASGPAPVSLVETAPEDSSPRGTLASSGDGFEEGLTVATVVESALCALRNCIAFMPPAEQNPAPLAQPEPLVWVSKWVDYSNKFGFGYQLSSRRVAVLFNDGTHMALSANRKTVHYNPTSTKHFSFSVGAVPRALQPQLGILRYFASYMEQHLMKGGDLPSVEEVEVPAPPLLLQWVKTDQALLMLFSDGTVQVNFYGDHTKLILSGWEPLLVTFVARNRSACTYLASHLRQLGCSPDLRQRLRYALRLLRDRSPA", "settings": "compound concentration 100 nM; Entrez PLK3; read-out: Percent Control", "text": "as §1"}, "AURKA": {"biological_target": "AURKA (Homo sapiens, UniProt O14965)", "settings": "1000 nM, read-out: Percent Control", "text": "as §1"}, "ULK3": {"biological_target": "ULK3 (Homo sapiens, UniProt Q6PHR2)", "settings": "1000 nM, read-out: Percent Control", "text": "as §1"}, "PRKCI": {"biological_target": "PRKCI (Homo sapiens, UniProt P41743)", "settings": "1000 nM, read-out: Percent Control", "text": "as §1"}, "DCAMKL2": {"biological_target": "DCAMKL2 (Homo sapiens, UniProt Q8N568)", "settings": "1000 nM, read-out: Percent Control", "text": "as §1"}, "TRKA": {"biological_target": "TRKA (Homo sapiens, UniProt P04629)", "settings": "1000 nM, read-out: Percent Control", "text": "as §1"}, "LKB1": {"biological_target": "LKB1 (Homo sapiens, UniProt Q15831)", "settings": "1000 nM, read-out: Percent Control", "text": "as §1"}},
  "data": [
    {"smiles": "CN1C(=O)[C@@H](N2CCc3c(nn(Cc4ccccc4)c3C(N)=O)C2=O)COc2cc(Cl)ccc21", "note": "[Compound 10, (S)-2-benzyl-6-(8-chloro-5-methyl-4-oxo-2,3,4,5-tetrahydrobenzo[b][1,4]oxazepin-3-yl)-7-oxo-4,5,6,7-tetrahydro-2H-pyrazolo[3,4-c]pyridine-3-carboxamide]", "values": [
      {"measurement": "remaining binding at 0.1 µM", "setting": "MELK", "value": 93, "unit": "%"},
      {"measurement": "remaining binding at 0.1 µM", "setting": "NEK4", "value": 91, "unit": "%"},
      {"measurement": "remaining binding at 1 µM", "setting": "EPHA7; 1000 nM", "value": 100, "unit": "%"},
      {"measurement": "remaining binding at 0.1 µM", "setting": "EPHA7; compound concentration 100 nM, Entrez EPHA7", "value": 91, "unit": "%"},
      {"measurement": "remaining binding at 1 µM", "setting": "IKK-beta; 1000 nM", "value": 100, "unit": "%"},
      {"measurement": "remaining binding at 0.1 µM", "setting": "IKK-beta; compound concentration 100 nM, Entrez IKBKB", "value": 97, "unit": "%"},
      {"measurement": "remaining binding at 1 µM", "setting": "STK36", "value": 80, "unit": "%"},
      {"measurement": "remaining binding at 1 µM", "setting": "HIPK4", "value": 87, "unit": "%"},
      {"measurement": "remaining binding at 1 µM", "setting": "PIK3CA", "value": 92, "unit": "%"},
      {"measurement": "remaining binding at 1 µM", "setting": "WEE1", "value": 95, "unit": "%"},
      {"measurement": "remaining binding at 0.1 µM", "setting": "SRPK2", "value": 100, "unit": "%"},
      {"measurement": "remaining binding at 1 µM", "setting": "MARK3", "value": 98, "unit": "%"},
      {"measurement": "remaining binding at 1 µM", "setting": "SGK2", "value": 95, "unit": "%"},
      {"measurement": "remaining binding at 0.1 µM", "setting": "ULK1", "value": 100, "unit": "%"},
      {"measurement": "remaining binding at 1 µM", "setting": "CSNK1A1", "value": 83, "unit": "%"},
      {"measurement": "remaining binding at 1 µM", "setting": "ERBB2; 1000 nM", "value": 100, "unit": "%"},
      {"measurement": "remaining binding at 0.1 µM", "setting": "ERBB2; compound concentration 100 nM, Entrez ERBB2", "value": 100, "unit": "%"},
      {"measurement": "remaining binding at 1 µM", "setting": "INSRR", "value": 76, "unit": "%"},
      {"measurement": "remaining binding at 1 µM", "setting": "PRKX", "value": 78, "unit": "%"},
      {"measurement": "remaining binding at 1 µM", "setting": "[1]", "value": 88, "unit": "%"},
      {"measurement": "remaining binding at 1 µM", "setting": "CDC2L5; 1000 nM", "value": 100, "unit": "%"},
      {"measurement": "remaining binding at 0.1 µM", "setting": "CDC2L5; compound concentration 100 nM, Entrez CDK13", "value": 100, "unit": "%"},
      {"measurement": "remaining binding at 0.1 µM", "setting": "SIK2", "value": 71, "unit": "%"},
      {"measurement": "remaining binding at 1 µM", "setting": "PRKG1", "value": 91, "unit": "%"},
      {"measurement": "remaining binding at 0.1 µM", "setting": "SRMS", "value": 90, "unit": "%"},
      {"measurement": "remaining binding at 1 µM", "setting": "KIT-autoinhibited", "value": 97, "unit": "%"},
      {"measurement": "remaining binding at 1 µM", "setting": "NEK10", "value": 94, "unit": "%"},
      {"measurement": "remaining binding at 1 µM", "setting": "GRK3", "value": 71, "unit": "%"},
      {"measurement": "remaining binding at 1 µM", "setting": "HIPK1", "value": 93, "unit": "%"},
      {"measurement": "remaining binding at 1 µM", "setting": "NLK", "value": 98, "unit": "%"},
      {"measurement": "remaining binding at 0.1 µM", "setting": "PIP5K1C", "value": 100, "unit": "%"},
      {"measurement": "remaining binding at 1 µM", "setting": "EIF2AK1", "value": 94, "unit": "%"},
      {"measurement": "remaining binding at 1 µM", "setting": "HIPK3", "value": 94, "unit": "%"},
      {"measurement": "remaining binding at 1 µM", "setting": "EPHB6", "value": 94, "unit": "%"},
      {"measurement": "remaining binding at 0.1 µM", "setting": "PLK3", "value": 86, "unit": "%"},
      {"measurement": "remaining binding at 1 µM", "setting": "AURKA", "value": 72, "unit": "%"},
      {"measurement": "remaining binding at 1 µM", "setting": "ULK3", "value": 93, "unit": "%"},
      {"measurement": "remaining binding at 1 µM", "setting": "PRKCI", "value": 80, "unit": "%"},
      {"measurement": "remaining binding at 1 µM", "setting": "DCAMKL2", "value": 83, "unit": "%"},
      {"measurement": "remaining binding at 1 µM", "setting": "TRKA", "value": 95, "unit": "%"},
      {"measurement": "remaining binding at 1 µM", "setting": "LKB1", "value": 88, "unit": "%"}
    ]}
  ]
}
